{"source": "ChEMBL document CHEMBL1201862", "about": "“PubChem BioAssay data set” (2004)", "key": {"Galanin receptor type 3": {"molecular_target": "T1, Galanin receptor type 3 (Homo sapiens, UniProt O60755)", "T1 sequence (O60755 whole entry)": "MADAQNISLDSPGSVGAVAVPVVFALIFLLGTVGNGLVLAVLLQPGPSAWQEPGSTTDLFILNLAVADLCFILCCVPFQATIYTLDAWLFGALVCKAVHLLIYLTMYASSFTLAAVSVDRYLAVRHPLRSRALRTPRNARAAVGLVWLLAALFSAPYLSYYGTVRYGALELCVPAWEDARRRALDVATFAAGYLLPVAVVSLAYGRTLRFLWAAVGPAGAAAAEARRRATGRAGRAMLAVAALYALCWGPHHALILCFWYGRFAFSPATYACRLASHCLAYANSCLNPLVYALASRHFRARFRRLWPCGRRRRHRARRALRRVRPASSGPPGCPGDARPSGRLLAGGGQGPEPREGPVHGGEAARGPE", "assay": "Fluorescence-based cell-based primary high throughput dose response assay to identify antagonists of the Galanin Receptor 3 (GalR3).", "assay_type": "functional"}, "cells": {"assay": "cells", "assay_type": "functional, cell-based", "conditions": "HEK-CNG"}, "[1]": {"assay": "reduction of Shn3 3'UTR-driven luciferase in osteoblasts – cell-based, Clone20 osteoblasts, firefly luciferase, cherry-picked, dose response (AID 624132)", "assay_type": "functional"}, "[2]": {"assay": "loss of viability in HepG2 cells – cell-based, CellTiter-Glo, cherry-picked, cytotoxicity control for Shn3 inhibitor project, dose response (AID 624134)", "assay_type": "functional"}, "[3]": {"assay": "non-specific 3'UTR reporter inhibition in Clone20-Shn3RL – cell-based, Renilla luciferase, cherry-picked, counter-screen for Shn3 inhibitor project, dose response (AID 624133)", "assay_type": "functional"}, "[4]": {"molecular_target": "T2, COUP transcription factor 2 (Homo sapiens, UniProt P24468)", "T2 sequence (P24468 whole entry)": "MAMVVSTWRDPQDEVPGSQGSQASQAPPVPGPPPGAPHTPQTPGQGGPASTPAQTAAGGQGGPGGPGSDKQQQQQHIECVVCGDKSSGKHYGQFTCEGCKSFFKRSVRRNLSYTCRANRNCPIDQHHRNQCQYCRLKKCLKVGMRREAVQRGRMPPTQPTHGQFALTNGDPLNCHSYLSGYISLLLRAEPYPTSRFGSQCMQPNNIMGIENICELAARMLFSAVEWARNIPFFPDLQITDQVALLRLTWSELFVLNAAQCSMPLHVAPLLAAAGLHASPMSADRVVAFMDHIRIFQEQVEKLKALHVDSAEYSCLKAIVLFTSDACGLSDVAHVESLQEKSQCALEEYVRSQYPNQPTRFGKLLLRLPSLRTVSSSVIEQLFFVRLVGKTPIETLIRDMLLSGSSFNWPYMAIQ", "assay": "Luminescence-based cell-based high throughput dose response assay to identify inhibitors of COUP-TFII (NR2F2).", "assay_type": "functional"}, "[5]": {"assay": "A549 cell cytotoxicity, dose response, cytotoxicity control, plate reader, cherry-pick, antagonist series (AID 743412)", "assay_type": "functional, cell-based"}, "[6]": {"assay": "blockade of melanocortin 4 receptor signaling – cell-based, plate reader, cherry pick, counter-screen for LGR2 antagonist project, dose response (AID 743444);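 note: transfected HEK 293 cells stimulated with alpha-MSH peptide; potency of inhibitors of the alpha-MSH evoked signal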", "assay_type": "functional"}, "[7]": {"assay": "blockers of bursicon-stimulated LGR2 cAMP reporter – cell-based, HEK293, CRE-luciferase reporter, cherry pick, set 2, dose response (AID 743343);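 note: transfected cells were stimulated with diluted bursicon conditioned medium after compound addition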", "assay_type": "functional"}, "[8]": {"assay": "toxicity toward HepG2 liver cells – cell-based, plate reader, cherry-pick, antagonist series, cytotoxicity control, dose response (AID 743416)", "assay_type": "functional"}, "[9]": {"assay": "viability loss in HEK293 cells – cell-based, plate reader, cherry-picked samples, cytotoxicity control, dose response (AID 743446)", "assay_type": "functional"}, "[10]": {"molecular_target": "Potassium channel subfamily K member 9 (Homo sapiens, UniProt Q9NPC2)", "sequence (Q9NPC2 whole entry)": "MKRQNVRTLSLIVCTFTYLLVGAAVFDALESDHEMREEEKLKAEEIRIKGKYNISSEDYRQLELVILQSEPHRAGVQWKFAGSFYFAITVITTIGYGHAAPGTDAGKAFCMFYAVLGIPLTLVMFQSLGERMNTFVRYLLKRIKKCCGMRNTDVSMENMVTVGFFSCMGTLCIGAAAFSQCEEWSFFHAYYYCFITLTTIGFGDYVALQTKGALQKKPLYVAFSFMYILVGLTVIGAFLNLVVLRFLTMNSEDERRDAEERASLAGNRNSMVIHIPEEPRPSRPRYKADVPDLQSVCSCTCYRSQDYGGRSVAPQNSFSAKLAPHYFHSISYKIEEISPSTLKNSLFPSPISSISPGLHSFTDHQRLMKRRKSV", "assay": "KCNK9 flux blockade, concentration-response – cell-based, FluxOR thallium flux, selectivity assay for TASK1 inhibitor project, SAR follow-up (AID 652211);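 note: potency is for inhibitors of the channel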", "assay_type": "functional"}, "[11]": {"molecular_target": "T3, Tyrosyl-DNA phosphodiesterase 2 (Homo sapiens, UniProt O95551)", "T3 sequence (O95551 whole entry)": "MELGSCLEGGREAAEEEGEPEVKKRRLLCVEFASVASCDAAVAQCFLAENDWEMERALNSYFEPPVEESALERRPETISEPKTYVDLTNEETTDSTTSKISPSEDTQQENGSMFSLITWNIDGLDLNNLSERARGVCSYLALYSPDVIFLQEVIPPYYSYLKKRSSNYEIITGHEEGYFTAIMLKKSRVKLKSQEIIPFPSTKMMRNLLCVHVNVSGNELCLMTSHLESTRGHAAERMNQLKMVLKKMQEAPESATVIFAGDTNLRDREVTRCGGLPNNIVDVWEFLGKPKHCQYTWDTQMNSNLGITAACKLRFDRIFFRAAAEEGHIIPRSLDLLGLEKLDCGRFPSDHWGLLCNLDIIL", "assay": "potency against TDP2 phosphodiesterase activity – biochemical, epi absorbance, IC50, dose response (AID 743297)"}, "Protein RecA": {"molecular_target": "T4, Protein RecA (Mycobacterium tuberculosis, UniProt P9WHJ3)", "T4 sequence (P9WHJ3 whole entry)": "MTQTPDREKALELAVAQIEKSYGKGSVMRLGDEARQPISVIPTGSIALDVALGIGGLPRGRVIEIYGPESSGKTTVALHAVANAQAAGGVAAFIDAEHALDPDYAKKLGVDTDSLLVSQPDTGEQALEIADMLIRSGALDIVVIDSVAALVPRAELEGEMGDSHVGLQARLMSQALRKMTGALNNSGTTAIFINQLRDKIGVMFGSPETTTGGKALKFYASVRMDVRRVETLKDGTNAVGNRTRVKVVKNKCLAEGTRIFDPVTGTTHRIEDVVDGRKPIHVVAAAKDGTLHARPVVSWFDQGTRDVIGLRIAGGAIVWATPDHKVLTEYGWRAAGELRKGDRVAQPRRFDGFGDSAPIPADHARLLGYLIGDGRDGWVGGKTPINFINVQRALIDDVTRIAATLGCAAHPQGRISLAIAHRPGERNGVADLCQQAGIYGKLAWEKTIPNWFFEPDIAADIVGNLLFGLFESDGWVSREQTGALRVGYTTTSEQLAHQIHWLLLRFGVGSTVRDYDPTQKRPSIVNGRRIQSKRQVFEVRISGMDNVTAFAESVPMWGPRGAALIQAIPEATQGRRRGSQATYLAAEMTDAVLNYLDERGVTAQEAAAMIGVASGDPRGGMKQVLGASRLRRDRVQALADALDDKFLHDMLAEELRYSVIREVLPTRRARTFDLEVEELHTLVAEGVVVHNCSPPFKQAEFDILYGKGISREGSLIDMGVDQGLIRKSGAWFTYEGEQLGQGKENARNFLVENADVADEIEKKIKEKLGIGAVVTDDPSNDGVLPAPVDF", "assay": "Fluorescence Cell-Free Homogeneous Dose Retest to Identify Inhibitors of RecA-Intein Splicing Activity. [Related pubchem assays (depositor defined):AID2097, AID2223, AID489010, AID492950]", "assay_type": "functional"}, "Caspase-6": {"molecular_target": "T5, Caspase-6 (Homo sapiens, UniProt P55212)", "T5 sequence (P55212 whole entry)": "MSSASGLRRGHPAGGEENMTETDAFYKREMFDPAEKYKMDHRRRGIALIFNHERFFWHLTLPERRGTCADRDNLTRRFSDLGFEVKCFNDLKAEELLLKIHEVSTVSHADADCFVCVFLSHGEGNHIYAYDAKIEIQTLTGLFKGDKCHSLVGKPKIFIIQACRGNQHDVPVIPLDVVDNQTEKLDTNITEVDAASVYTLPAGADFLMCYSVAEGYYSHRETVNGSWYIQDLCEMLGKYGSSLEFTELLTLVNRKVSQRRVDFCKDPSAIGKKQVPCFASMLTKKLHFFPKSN", "assay": "inhibition of CASP6 peptide cleavage – biochemical, VEID-R110 fluorescence, cherry-pick, dose response (AID 720632)"}, "[12]": {"assay": "P. falciparum Dd2 growth inhibitors, dose response, SYBR Green, cherry-picked samples (AID 1159567)", "assay_type": "functional, cell-based"}, "[13]": {"assay": "toxicity to human hepatoma HepG2 cells – cell-based, cherry-picked samples, cytotoxicity control, dose response (AID 1159577)", "assay_type": "functional"}, "[14]": {"assay": "viability loss in Vero cells – cytotoxicity control for Vif-APOBEC3G degradation inhibitor project, dose response (AID 1117358)", "assay_type": "functional", "conditions": "Vero"}}, "note": "The source made the active and inactive calls."}
{"smiles": "CC(=O)c1c(C)[nH]c(C(=O)COc2cc(C)ccc2C(C)C)c1C", "values": [{"measurement": "IC50", "setting": "Galanin receptor type 3", "value": "1.24 µM (active)"}, {"measurement": "EC50", "setting": "cells", "value": "> 29.9 µM (inactive)"}, {"measurement": "AC50", "setting": "[1]", "value": "1.25 µM (active)"}, {"measurement": "AC50", "setting": "[2]", "value": "3.12 µM (active)"}, {"measurement": "AC50", "setting": "[3]", "value": "8.41 µM (active)"}, {"measurement": "IC50", "setting": "[4]", "value": "5.74 µM (active)"}]}
{"smiles": "N#C[C@H]1[C@H](c2ccc(C#Cc3ccccc3F)cc2)[C@H](CO)N1C(=O)C1CCCC1", "values": [{"measurement": "AC50", "setting": "[5]", "value": "23.6 µM (active)"}, {"measurement": "AC50", "setting": "[6]", "value": "4.57 µM (active)"}, {"measurement": "AC50", "setting": "[7]", "value": "5.64 µM (active)"}, {"measurement": "AC50", "setting": "[8]", "value": "34.5 µM (active)"}, {"measurement": "AC50", "setting": "[9]", "value": "8.77 µM (active)"}]}
{"smiles": "O=C(Nc1cccc(NC(=O)c2ccccc2Cl)c1)c1ccccc1", "values": [{"measurement": "IC50", "setting": "[10]", "value": "33.4 µM (active)"}]}
{"smiles": "S=C(Nc1ccc2nsnc2c1)N1CCCCCC1", "values": [{"measurement": "IC50", "setting": "[11]", "value": "> 128 µM (inactive)"}, {"measurement": "EC50", "setting": "Protein RecA", "value": "46.7 µM (active)"}]}
{"smiles": "Cc1c(C)n(Cc2ccccc2)c2ncnc(Cl)c12", "values": [{"measurement": "IC50", "setting": "[4]", "value": "10.7 µM (inactive)"}]}
{"smiles": "O=C1NC(Cc2ccc(O)cc2)c2nc3ccc(Br)cc3c(=O)n2-c2ncccc21", "note": "(stereo not given)", "values": [{"measurement": "AC50", "setting": "Caspase-6", "value": "35.4 µM (active)"}]}
{"smiles": "N#C[C@@H]1[C@H](c2ccc(C#CC3CCCCC3)cc2)[C@@H](CO)N1C(=O)Nc1ccc(F)cc1", "values": [{"measurement": "AC50", "setting": "[12]", "value": "7.33 µM (active)"}, {"measurement": "AC50", "setting": "[13]", "value": "14 µM (active)"}]}
{"smiles": "Cc1cccc(C(=O)Nc2cccc(NC(=O)c3ccccc3C)c2)c1", "values": [{"measurement": "IC50", "setting": "[10]", "value": "0.94 µM (active)"}]}
{"smiles": "CCc1nnc(NC(=O)c2ccc(S(=O)(=O)N(CC(C)C)CC(C)C)cc2)o1", "values": [{"measurement": "CC50", "setting": "[14]", "value": "> 40 µM (active)"}]}
